Where a name gives a salt, the structure may show the parent alone.

Series [1] deals with A549 human lung cancer cells. In words: A549 human lung cancer xenograft model, β-lapachone alone or with gemcitabine. It is filed as in vivo. The following applies: for toxicity: female, athymic nude (Ncr), mouse, in vivo, ip; for retardation of tumor growth, monotherapy: β-lapachone 60 mg/kg or gemcitabine 120 mg/kg alone, e.g. days 24 and 27. On the procedure:
Mice receive a total of eight treatments. Mean tumor volume is analyzed; data points in FIG. 4 represent the arithmetic mean +/−SEM of five tumors.

For the next series, the system named is normal cells. The experiment in a line: In vitro experiments using cell lines of various tissue origins (toxicity to normal cells). It counts as cell-based.
The subject of series [2] is A549 human lung cancer cells. It is filed as in vivo. The following applies: 60 mg/kg intraperitoneally every three days, 8 treatments. On the procedure:
The animals are randomized into three groups of seven animals per group. […] Mean tumor volume is then analyzed.

In series [3] the test system is 60 cancer cell lines. The experiment in a line: NCI in vitro screen of 60 cancer cell lines (sulforhodamine B assay). It counts as cell-based. Conditions: Homo sapiens; mean across all cells of NCI60; read-out: LC50 (log 10 molar concentration causing 50% lethality), mean across all cells (converted). As to the method: The NCI assays are performed under standardized conditions not designed to mimic the conditions of dosing and use the sulforhodamine B assay as the endpoint. […] When compared to many FDA approved chemotherapeutic agents for common cancer types with publicly available data, none of the compared approved drugs exceed the mean of β-lapachone across all cells and only mitoxantrone equals it. FIG. 2.

For series [4], the system named is 60 cancer cell lines. The following applies: FDA approved chemotherapeutic agents, publicly available data; cited from earlier work.
The mark [5] stands for this setting: ip every three days, eight treatments.

With `Nc1ccn([C@@H]2O[C@H](CO)[C@@H](O)C2(F)F)c(=O)n1` [gemcitabine, 2′-deoxy-2′,2′-difluorocytidine monohydrochloride (β-isomer), reference compound], in series [1], the toxicity entry was “No significant toxicity”. Besides, the “retardation of tumor growth, monotherapy” value in series [1] (setting [5]) is “retarded tumor growth to a similar extent”.
With `CC1(C)CCC2=C(O1)c1ccccc1C(=O)C2=O` [β-lapachone, 3,4-dihydro-2,2-dimethyl-2H-naphtho[1,2-b]pyran-5,6-dione], the “toxicity to normal cells” value in the series on normal cells is listed as “relatively non-toxic to normal cells”. Moreover, in series [1], the toxicity result was “No significant toxicity”. Besides, in series [1] (setting [5]), the “retardation of tumor growth, monotherapy” value is on record as “retarded tumor growth to a similar extent”. Also, in series [1] (β-lapachone in 40% HPBCD, ip every three days, eight treatments), the “retardation of tumor growth, 60 mg/kg compared with 40 mg/kg” value is “more effective at retarding tumor growth”. Also, in series [2], the “reduction of mean tumor volume” value is “approximately 50%”. The CC50 in the series on 60 cancer cell lines [3] is 8.51 µM.
Consider `O=C1c2c(O)ccc(O)c2C(=O)c2c(NCCNCCO)ccc(NCCNCCO)c21` [mitoxantrone], for which the “mean LC50 across all cells compared with that of β-lapachone” value in the series on 60 cancer cell lines [4] is given as “equals it”.
